Article PMC3509320 (Journal of medicinal chemistry, 2012)

Assays:
h5-HT4 = h5-HT4 (Homo sapiens, UniProt Q13639); assay: 5-HT4R intrinsic activity functional assay; conditions: h5-HT4, functional assay at CEREP
5-HT4R [1] = target: 5-HT4R (Rattus norvegicus, UniProt Q62758); assay: In vitro autoradiographic competition with [125I]1 on rat brain sections; format: binding
5-HT4R [2] = target: 5-HT4R (Mus musculus, UniProt P97288); assay: In vivo competition with [125I]1, ex vivo autoradiography of mouse brain
[3] = SPECT tracer ref 19; cited from earlier work

h5-HT4, sequence (Q13639 whole entry): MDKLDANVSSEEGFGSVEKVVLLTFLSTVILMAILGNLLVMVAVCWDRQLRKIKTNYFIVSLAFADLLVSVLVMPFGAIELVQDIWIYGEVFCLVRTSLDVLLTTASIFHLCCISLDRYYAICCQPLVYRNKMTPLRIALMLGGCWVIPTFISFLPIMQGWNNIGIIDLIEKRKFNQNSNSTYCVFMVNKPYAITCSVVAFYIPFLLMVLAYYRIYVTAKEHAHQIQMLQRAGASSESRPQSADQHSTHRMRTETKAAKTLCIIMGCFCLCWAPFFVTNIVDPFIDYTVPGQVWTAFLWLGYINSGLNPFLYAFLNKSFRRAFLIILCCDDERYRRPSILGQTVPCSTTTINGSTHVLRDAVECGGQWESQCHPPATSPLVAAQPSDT
5-HT4R (Mus musculus, UniProt P97288), sequence (P97288 whole entry): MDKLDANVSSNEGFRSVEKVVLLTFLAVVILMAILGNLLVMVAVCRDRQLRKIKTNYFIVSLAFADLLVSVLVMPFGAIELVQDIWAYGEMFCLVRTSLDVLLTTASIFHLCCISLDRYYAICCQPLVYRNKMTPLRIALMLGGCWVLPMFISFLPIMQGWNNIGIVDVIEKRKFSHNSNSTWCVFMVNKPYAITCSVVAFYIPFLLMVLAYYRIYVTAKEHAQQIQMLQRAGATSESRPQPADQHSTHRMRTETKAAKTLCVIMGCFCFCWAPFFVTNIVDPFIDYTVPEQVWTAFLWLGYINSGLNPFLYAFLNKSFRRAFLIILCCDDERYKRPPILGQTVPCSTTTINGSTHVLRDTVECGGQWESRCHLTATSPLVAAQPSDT
5-HT4R (Rattus norvegicus, UniProt Q62758), sequence (Q62758 whole entry): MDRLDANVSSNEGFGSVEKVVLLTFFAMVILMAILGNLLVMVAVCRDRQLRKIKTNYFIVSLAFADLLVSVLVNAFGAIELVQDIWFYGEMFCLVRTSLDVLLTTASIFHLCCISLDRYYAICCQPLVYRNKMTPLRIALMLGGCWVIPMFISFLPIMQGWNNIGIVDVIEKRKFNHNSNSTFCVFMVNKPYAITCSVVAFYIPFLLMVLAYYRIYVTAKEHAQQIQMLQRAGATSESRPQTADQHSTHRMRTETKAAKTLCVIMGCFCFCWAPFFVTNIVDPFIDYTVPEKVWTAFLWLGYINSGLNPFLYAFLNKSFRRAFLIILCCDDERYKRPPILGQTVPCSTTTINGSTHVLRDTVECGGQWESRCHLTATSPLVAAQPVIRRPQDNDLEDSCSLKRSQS

CCCN1CCC(COc2nc3c(I)cccc3c3ccccc23)CC1 [Compound 11a, 4-Iodo-6-(1-propylpiperidin-4-yl)methyloxyphenanthridine]
efficacy (intrinsic activity) (h5-HT4): full antagonists

Fc1cccc2c1nc(OCC1CCN(CCCc3ccc(I)cc3)CC1)c1cccnc12 [Compound 11d, 7-Fluoro-5-{1-[3-(4-iodophenyl)propyl]piperidin-4-yl}methyloxybenzo[h]-1,6-naphthyridine]
5-HT4R-specific [125I]1 radioactivity in autoradiograms (5-HT4R [1]; 10 pM of 11d with 100 pM [125I]1, rat brain sections): decrease in the 5-HT4R-specific radioactivity
5-HT4R-specific [125I]1 radioactivity in autoradiograms (5-HT4R [1]; 1 nM of 11d with 100 pM [125I]1, rat brain sections): almost complete abolishment of the signal
blood brain barrier crossing (5-HT4R [2]; i.v. 50 µg/kg): able to cross the blood brain barrier
specific binding of [125I]1 ex vivo (5-HT4R [2]; i.v. co-injection of 50 µg/kg 11d, compared to [125I]1 alone): markedly reduced
efficacy (intrinsic activity) (h5-HT4): full antagonists

CCCN1CCC(COc2nc3c(I)cccc3c3ncccc23)CC1 [Compound 11b, 7-Iodo-5-(1-propylpiperidin-4-yl)methyloxybenzo[h]-1,6-naphthyridine]
efficacy (intrinsic activity) (h5-HT4): full antagonists

CCCCN1CCC(COC(=O)c2cc([123I])c(N)c3c2OCCO3)CC1 [[^123I]1, (1-butylpiperidin-4-yl)methyl-8-amino-7-iodo[^123I]-2,3-dihydrobenzo[b][1,4]dioxine-5-carboxylate]
brain penetration [3]: low brain penetration
metabolism [3]: rapid metabolism

CCCN1CCC(COc2nc3c(F)cccc3c3ncccc23)CC1 [Compound 4v, 7-Fluoro-5-(1-propylpiperidin-4-yl)methyloxybenzo[h]-1,6-naphthyridine]
efficacy (intrinsic activity) (h5-HT4): full antagonists
